Reference: PMC10542788, “Discovery of a cystathionine γ-lyase (CSE) selective inhibitor targeting active-site pyridoxal 5′-phosphate (PLP) via Schiff base formation” (Scientific Reports, 2023)

Columns and labels:
rat CSE (rCSE) = target: T1, rat CSE (rCSE) (Rattus norvegicus, UniProt P18757); assay: rCSE inhibition, H2S detection by fluorescence of HSip-1; assay type: biochemical
T1 construct: His-tag (C); made in house; host or cells: E. coli BL21
Description: The developed assay system employs a plate reader to detect H2S production by CSE as a fluorescence signal in a solution containing 30 μg/mL rat CSE (rCSE), 1 μM HSip-1, 100 μM pyridoxal-5′-phosphate (PLP) and 1.5 mM cysteine (a substrate) in a 384-well plate format (Fig. 1b). A large amount of rCSE was expressed in E. coli and purified on a Ni Sepharose 6 Fast Flow module. We then performed screening of a chemical library consisting of 161,600 compounds (from the Drug Discovery Initiative, the University of Tokyo) for CSE inhibitors (Fig. 1c). […] Then, a confirmation test for repeatability (n = 4) of the 160 compounds selected in the 1st screening was performed to exclude false-positives. In this step, we also excluded cysteine-reactive compounds by changing the addition order of the rCSE and cysteine (substrate) solutions. In other words, in the 1st screening, the enzyme solution was firstly added to each library compound, while in the confirmation test for repeatability of the hit compounds in the 1st screening, we firstly added the cysteine solution to each compound. This enabled us to identify and exclude cysteine-reactive compounds, based on their reaction with the added cysteine. These procedures left 80 compounds showing both more than 40% inhibition at 10 µM and similar % inhibition of rCSE irrespective of the addition order of the rCSE and cysteine solutions. In the 2nd screening, we examined the reactivity of these 80 compounds with H2S using an H2S donor[17] to exclude H2S-reactive compounds. […] In this assay, we selected 13 compounds which were non-reactive to H2S, but one was relatively unstable and two of them were the same compound, so that 11 compounds were finally selected. These compounds included some hydrazine and hydrazide derivatives, so we performed titration assay of the selected 11 compounds together with 9 commercially available hydrazine and hydrazide compounds (Supplementary Fig. S3) and calculated the half-maximal (50%) inhibitory concentration (IC50) of each compound.
The fluorescence intensity of HSip-1 was measured (λex = 490 nm, λem = 510 nm) with a microplate reader (EnVision, Perkin Elmer).
10 µL of 1.5 mM cysteine solution in 30 mM HEPES (pH 7.4) was added to 10 µL of solution containing 30 µg/mL rCSE, 100 µM PLP, 1 µM HSip-1, 0.005% tween 20 and the test compound (0.5% DMSO as a cosolvent). The mixture was incubated at 25 °C for 3 h and the fluorescence intensity of HSip-1 was measured with a microplate reader.

COS7 cells = assay: CCK-8 cell viability assay; assay type: cell-based; conditions: 27 h, 37 °C
Description: We next examined the suitability of 1 for live-cell experiments. First, we performed CCK-8 assay (Dojindo) to examine its cytotoxicity. COS7 cells were incubated with various concentrations of 1 for 27 h at 37 °C under 5% CO2 and the cell viability was assessed. […] We then examined whether 1 can inhibit the enzymatic activity of hCSE in living cells by employing an indirect approach (Supplementary Fig. S12). HEK293T cells expressing hCSE were incubated with 0–1 mM 1 for 30 min, then washed twice with phosphate-buffered saline (PBS), and lysed in RIPA buffer (50 mM Tris–HCl buffer (pH 7.6), 150 mM NaCl, 1% Nonidet P40 Substitute, 0.5% sodium deoxycholate, protease inhibitor cocktail, 0.1% SDS). The inhibitory activity of 1 was evaluated by fluorescence detection after adding 1.5 mM cysteine, 100 μM PLP and 1 μM HSip-1 to these cell lysates.
We performed CCK-8 (Cell Counting Kit-8) assay (Dojindo) to examine cell viability. […] This absorbance is proportional to the number of living cells. […] The absorbance at 450 nm was measured with a microplate reader (EnVision, Perkin Elmer).
Supplementary Figure S11. […] COS7 cells were incubated in DMEM (Dulbecco’s modified Eagle’s medium) containing 1 (1, 3, 10, 30 and 100 µM) for […] and the cell viability was measured using CCK-8 reagent. […]

rCSE = rCSE (Rattus norvegicus, UniProt P18757); assay: Live-cell fluorescence imaging of sulfane sulfur with SSP4 in rCSE-expressing COS-7 cells; assay type: cell-based; conditions: COS-7 cells expressing rCSE, 1000 µM
Chain of rCSE (P18757 whole entry): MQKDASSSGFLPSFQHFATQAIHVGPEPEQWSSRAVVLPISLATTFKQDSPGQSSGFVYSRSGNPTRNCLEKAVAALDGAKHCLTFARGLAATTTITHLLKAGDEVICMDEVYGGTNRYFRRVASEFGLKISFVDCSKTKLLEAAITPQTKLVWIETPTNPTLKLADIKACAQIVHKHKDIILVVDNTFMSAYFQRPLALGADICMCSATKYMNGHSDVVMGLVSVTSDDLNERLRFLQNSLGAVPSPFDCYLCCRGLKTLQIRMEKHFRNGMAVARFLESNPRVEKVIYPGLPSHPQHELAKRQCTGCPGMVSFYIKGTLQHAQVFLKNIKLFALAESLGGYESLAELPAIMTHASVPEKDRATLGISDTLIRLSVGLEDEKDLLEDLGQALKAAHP
Description: Finally, we evaluated the inhibitory activity of 1 towards rCSE in cells. […] So, we prepared COS-7 cells expressing rCSE, treated them with 1 at various concentrations (0, 100, 300 and 1000 µM), and performed fluorescence imaging of sulfane sulfur with SSP4. […] Thus, this inhibitor is available for live-cell experiments.
COS-7 cells were maintained in Dulbecco’s modified Eagle’s medium (DMEM) containing 10% fetal calf serum (FBS) and 1% penicillin streptomycin in a humidified atmosphere at 37 °C. The cells were seeded in 6 cm dishes at a density of 5 × 10^5 cells per dish. Transient transfection was performed with Lipofectamine 3000 (Thermo Fisher Scientific). Briefly, 2.5 µg plasmid, 5 µL P3000 reagent, and 7.5 µL Lipofectamine 3000 reagent were mixed in Opti-MEM, and the mixture was added to the cells. After incubation for 24 h, transfected COS-7 cells were re-seeded in eight-well chamber slides (µ-Slide 8 well high, ibidi GmbH) at a density of 4 × 10^4 cells per well. […] Excess probe was removed and the cells were washed with HBSS, then fluorescence images were captured using a Nikon A1R + confocal laser scanning microscope with an ECLIPSE Ti-E inverted microscope and a 20 × objective lens. […] Fluorescence intensity of images was calculated by using NIS-Elements software (Nikon).

T1 sequence (P18757 whole entry): as above

- IC50 (rat CSE (rCSE); fluorescence assay with HSip-1, 1.5 mM cysteine, 100 μM PLP, mean ± S.E., read-out: IC50, inhibitory activity towards rCSE): 13 ± 1 µM
- SSP4 fluorescence intensity (sulfane sulfur) in cells (rCSE): almost completely suppressed
SMILES: NNC(=O)C(N)=O [Compound 1, oxamic hydrazide]
- selectivity for CSE among the compounds examined (1, 2, PAG) (rat CSE (rCSE); versus CBS, 3MST, MGL and ALT): highest selectivity for CSE
- cytotoxicity (cell viability) (COS7 cells): No cytotoxicity was observed below 100 µM
